The source made the active and inactive calls. No rule for the calls is given here.

The subject of this data set is CCRIS mutagenicity, Ames/micronucleus/aberration tests. Description: CCRIS mutagenicity studies.
[1] abbreviates: Test System: AMES SALMONELLA TYPHIMURIUM, Strain/Indicator: TA98, Metabolic Activation: NONE, Method: PREINCUBATION
Where [2] appears, read: Test System: AMES SALMONELLA TYPHIMURIUM, Strain/Indicator: TA100, Metabolic Activation: NONE, Method: PREINCUBATION
Setting [3] is: Test System: AMES SALMONELLA TYPHIMURIUM, Strain/Indicator: TA1535, Metabolic Activation: NONE, Method: PREINCUBATION

`CCCCCCC(O)C/C=C\CCCCCCCC(=O)OCC(COC(=O)CCCCCCC/C=C\CC(O)CCCCCC)OC(=O)CCCCCCC/C=C\CC(O)CCCCCC` (stereo not drawn): the mutagenic call by setting is: (Test System: AMES SALMONELLA TYPHIMURIUM, Strain/Indicator: TA97, Metabolic Activation: HAMSTER, LIVER, S-9, AROCLOR 1254 (10 OR 30%), Method: PREINCUBATION) “inactive; negative”; (Test System: AMES SALMONELLA TYPHIMURIUM, Strain/Indicator: TA97, Metabolic Activation: NONE, Method: PREINCUBATION) “inactive; negative”; (Test System: AMES SALMONELLA TYPHIMURIUM, Strain/Indicator: TA97, Metabolic Activation: RAT, LIVER, S-9, AROCLOR 1254 (10 OR 30%), Method: PREINCUBATION) “inactive; negative”; (Test System: AMES SALMONELLA TYPHIMURIUM, Strain/Indicator: TA98, Metabolic Activation: HAMSTER, LIVER, S-9, AROCLOR 1254 (10 OR 30%), Method: PREINCUBATION) “inactive; negative”; under setting [1], “inactive; negative”; (Test System: AMES SALMONELLA TYPHIMURIUM, Strain/Indicator: TA98, Metabolic Activation: RAT, LIVER, S-9, AROCLOR 1254 (10 OR 30%), Method: PREINCUBATION) “inactive; negative”. Moreover, the mutagenic call is, setting by setting: (Test System: AMES SALMONELLA TYPHIMURIUM, Strain/Indicator: TA100, Metabolic Activation: HAMSTER, LIVER, S-9, AROCLOR 1254 (10 OR 30%), Method: PREINCUBATION) “inactive; negative”; under setting [2], “inactive; negative”; (Test System: AMES SALMONELLA TYPHIMURIUM, Strain/Indicator: TA100, Metabolic Activation: RAT, LIVER, S-9, AROCLOR 1254 (10 OR 30%), Method: PREINCUBATION) “inactive; negative”; (Test System: AMES SALMONELLA TYPHIMURIUM, Strain/Indicator: TA1535, Metabolic Activation: HAMSTER, LIVER, S-9, AROCLOR 1254 (10 OR 30%), Method: PREINCUBATION) “inactive; negative”; under setting [3], “inactive; negative”; (Test System: AMES SALMONELLA TYPHIMURIUM, Strain/Indicator: TA1535, Metabolic Activation: RAT, LIVER, S-9, AROCLOR 1254 (10 OR 30%), Method: PREINCUBATION) “inactive; negative”.
On to `CN=c1ccc2nc3ccc(N)cc3sc-2c1`, for which the mutagenic call (Test System: Ames Salmonella typhimurium, Strain/Indicator: TA98, Metabolic Activation: None, Method: Preincubation) was “active; positive”; the mutagenic call (Test System: Ames Salmonella typhimurium, Strain/Indicator: TA98, Metabolic Activation: Rat, Liver, S-9, Aroclor 1254 (10%), Method: Preincubation) is “active; positive”; the mutagenic call (Test System: Ames Salmonella typhimurium, Strain/Indicator: TA100, Metabolic Activation: None, Method: Preincubation) is “active; positive”; the mutagenic call (Test System: Ames Salmonella typhimurium, Strain/Indicator: TA100, Metabolic Activation: Rat, Liver, S-9, Aroclor 1254 (10%), Method: Preincubation) was “active; positive”; the mutagenic call (Test System: E. coli, Strain/Indicator: WPM uvrA/pKM101, Metabolic Activation: None, Method: Preincubation) is “active; positive”; the mutagenic call (Test System: E. coli, Strain/Indicator: WPM uvrA/pKM101, Metabolic Activation: Rat, Liver, S-9, Aroclor 1254 (10%), Method: Preincubation) is “active; positive”.
As for `COc1ccc2c(c1)nc(N)n2C`, the mutagenic call by setting is: (Test System: AMES SALMONELLA TYPHIMURIUM, Strain/Indicator: TA98, Metabolic Activation: RAT, LIVER, S-9, AROCLOR 1254, Method: PREINCUBATION) “active; positive”; (Test System: AMES SALMONELLA TYPHIMURIUM, Strain/Indicator: TA100, Metabolic Activation: RAT, LIVER, S-9, AROCLOR 1254, Method: PREINCUBATION) “active; positive”.
As for `C=C1C[C@@]23CCC4[C@](C)(C(=O)O)CCC[C@@]4(C)[C@@H]2CC[C@]1(OC(C)=O)C3` (stereo partly drawn), the mutagenic call (Test System: AMES SALMONELLA TYPHIMURIUM, Strain/Indicator: TM677, Metabolic Activation: RAT, LIVER, S-9, AROCLOR 1254, Method: PREINCUBATION) was “inactive; negative”.
With `O=C(CCCl)N=c1sn(C(=O)CCCl)c2ccc(Cl)cc12`, the mutagenic call (Test System: AMES SALMONELLA TYPHIMURIUM, Strain/Indicator: TA100, Metabolic Activation: S-9, Method: STANDARD PLATE) is “inactive; negative”.
For the compound `CCCCCCCCOP(=O)(OCCCCCCCC)OCCCCCCCC`, the mutagenic call (Test System: AMES SALMONELLA TYPHIMURIUM, Strain/Indicator: TA98, Metabolic Activation: HAMSTER, LIVER, S-9, AROCLOR 1254 (10%), Method: PREINCUBATION) is “inactive; negative”; the mutagenic call under setting [1] is “inactive; negative”; the mutagenic call (Test System: AMES SALMONELLA TYPHIMURIUM, Strain/Indicator: TA98, Metabolic Activation: RAT, LIVER, S-9, AROCLOR 1254 (10%), Method: PREINCUBATION) was “inactive; negative”; the mutagenic call (Test System: AMES SALMONELLA TYPHIMURIUM, Strain/Indicator: TA100, Metabolic Activation: HAMSTER, LIVER, S-9, AROCLOR 1254 (10%), Method: PREINCUBATION) was “inactive; negative”; the mutagenic call under setting [2] was “inactive; negative”; the mutagenic call (Test System: AMES SALMONELLA TYPHIMURIUM, Strain/Indicator: TA100, Metabolic Activation: RAT, LIVER, S-9, AROCLOR 1254 (10%), Method: PREINCUBATION) was “inactive; negative”. In addition, the mutagenic call by setting is: (Test System: AMES SALMONELLA TYPHIMURIUM, Strain/Indicator: TA1535, Metabolic Activation: HAMSTER, LIVER, S-9, AROCLOR 1254 (10%), Method: PREINCUBATION) “inactive; negative”; under setting [3], “inactive; negative”; (Test System: AMES SALMONELLA TYPHIMURIUM, Strain/Indicator: TA1535, Metabolic Activation: RAT, LIVER, S-9, AROCLOR 1254 (10%), Method: PREINCUBATION) “inactive; negative”; (Test System: AMES SALMONELLA TYPHIMURIUM, Strain/Indicator: TA1537, Metabolic Activation: HAMSTER, LIVER, S-9, AROCLOR 1254 (10%), Method: PREINCUBATION) “inactive; negative”; (Test System: AMES SALMONELLA TYPHIMURIUM, Strain/Indicator: TA1537, Metabolic Activation: NONE, Method: PREINCUBATION) “inactive; negative”; (Test System: AMES SALMONELLA TYPHIMURIUM, Strain/Indicator: TA1537, Metabolic Activation: RAT, LIVER, S-9, AROCLOR 1254 (10%), Method: PREINCUBATION) “inactive; negative”.
With `Cn1cnc2cc([N+](=O)[O-])ccc21`, the mutagenic call (Test System: AMES SALMONELLA TYPHIMURIUM, Strain/Indicator: TA98, Metabolic Activation: NONE, Method: STANDARD PLATE) was “inactive; negative”.
With `Clc1ccc2ccc3cccc4ccc1c2c34`, the mutagenic call is, setting by setting: (Test System: AMES SALMONELLA TYPHIMURIUM, Strain/Indicator: TA98, Metabolic Activation: RAT, LIVER, S-9, AROCLOR 1254, Method: STANDARD PLATE) “active; positive”; (Test System: AMES SALMONELLA TYPHIMURIUM, Strain/Indicator: TA100, Metabolic Activation: RAT, LIVER, S-9, AROCLOR 1254, Method: STANDARD PLATE) “active; positive”.
`Cc1ccc(NC2OC[C@@H](O)[C@H](O)[C@H]2O)cc1` (stereo partly drawn): the mutagenic call (Test System: AMES SALMONELLA TYPHIMURIUM, Strain/Indicator: TA100, Metabolic Activation: NONE, Method: LIQUID INCUBATION) is “active; positive”.
